This passage reports GI50 and TGI results from PubChem BioAssay (NCI).

Several values for one entry are separate records, joined by “and”; a condition that tells them apart may be missing. Identical values can stand only once.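 96-well plates; 48 h exposure; 5 concentrations. Endpoints by linear interpolation between flanking doses. Not reached: highest tested concentration assigned. GI50 marks 50% less growth. TGI: concentration producing complete growth inhibition.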

Test systems include OVCAR-5 ovarian; UACC-62 melanoma; HL-60(TB) leukemia; OVCAR-8 ovarian; SNB-75 CNS; HOP-92 NSCLC; SF-268 CNS; EKVX NSCLC; MDA-MB-231 breast; LOX IMVI melanoma.
Common to all, as to assay: NCI tumour cell line growth inhibition, 48 h

For the compound `CC(O)c1cccc(NCc2c3ccccc3c(=O)n3c2oc2ccccc23)c1` (stereo not given), the GI50 with OVCAR-5 ovarian is 18.3 µM; with UACC-62 melanoma, 5.45 µM; in the assay on HL-60(TB) leukemia it was over 100 µM; in the assay with OVCAR-8 ovarian, 8.04 µM; in the assay with SNB-75 CNS, 1.75 µM; with HOP-92 NSCLC it was 5.4 µM. Moreover, the GI50 in the assay on SF-268 CNS is over 100 µM; with EKVX NSCLC, 3.87 µM; in the assay on MDA-MB-231 breast, 13.3 µM; in the assay on LOX IMVI melanoma, 8.02 µM. Also, the TGI is over 100 µM in the assay on OVCAR-5 ovarian; 22.3 µM in the assay on UACC-62 melanoma; over 100 µM in the assay with HL-60(TB) leukemia; 36.2 µM with OVCAR-8 ovarian; 5.76 µM in the assay with SNB-75 CNS; 44.3 µM in the assay with HOP-92 NSCLC. In addition, the TGI with SF-268 CNS was over 100 µM; with EKVX NSCLC, 19.3 µM; with MDA-MB-231 breast it was 47.9 µM; with LOX IMVI melanoma, 36 µM.
`COC(=O)CCc1cc(OC)c2c(c1)C(C(=O)OC)C(c1ccc(OC)c(OC)c1)O2` (stereo not given): the TGI in the assay on OVCAR-5 ovarian was over 100 µM; in the assay with UACC-62 melanoma, over 100 µM; in the assay with HL-60(TB) leukemia, over 100 µM; in the assay with OVCAR-8 ovarian, over 100 µM; with SNB-75 CNS, 50.6 µM; in the assay on HOP-92 NSCLC, over 100 µM. For the same compound, the TGI with SF-268 CNS, in the assay with EKVX NSCLC, with MDA-MB-231 breast and in the assay on LOX IMVI melanoma was over 100 µM each time. For the same compound, the GI50 in the assay with UACC-62 melanoma was > 100 µM and 16.7 µM; in the assay on OVCAR-8 ovarian, > 100 µM and 39.6 µM; in the assay with SF-268 CNS it was > 100 µM and 37.9 µM; in the assay on MDA-MB-231 breast it was > 100 µM and 21.4 µM; with LOX IMVI melanoma it was > 100 µM and 12.1 µM.
On to `O=S(=O)(NC1=NCCN1C(=S)SN1CCn2c1nsc2=S)c1ccc(Br)cc1`, for which the GI50 is over 100 µM with OVCAR-5 ovarian; 25.2 µM with UACC-62 melanoma; 24.3 µM in the assay with HL-60(TB) leukemia; 25.8 µM with OVCAR-8 ovarian; 44.5 µM in the assay on SNB-75 CNS; 0.0273 µM in the assay on HOP-92 NSCLC. Moreover, the GI50 in the assay with SF-268 CNS is 39.4 µM; in the assay with EKVX NSCLC, 2.39 µM; in the assay with MDA-MB-231 breast, 28.8 µM; in the assay on LOX IMVI melanoma, 19.4 µM. In addition, the TGI in the assay on OVCAR-5 ovarian is over 100 µM; in the assay with UACC-62 melanoma, 94.3 µM; with HL-60(TB) leukemia, 60.1 µM; with OVCAR-8 ovarian it was 68.8 µM; in the assay on SNB-75 CNS, over 100 µM; in the assay with HOP-92 NSCLC, 36.7 µM. In addition, the TGI in the assay on SF-268 CNS was over 100 µM; in the assay with EKVX NSCLC, 95.1 µM; in the assay on MDA-MB-231 breast it was over 100 µM; in the assay with LOX IMVI melanoma it was 39.6 µM.
In the case of `O=C1Nc2ccc(C(=O)c3ccco3)cc2/C1=C/c1cc(Cl)c(O)c(Cl)c1`, the GI50 in the assay on OVCAR-5 ovarian was 8.35 µM; in the assay with UACC-62 melanoma, 2.63 µM; in the assay on HL-60(TB) leukemia, 6.93 µM; with OVCAR-8 ovarian, 6.27 µM; in the assay on SNB-75 CNS, 6.16 µM; in the assay with HOP-92 NSCLC it was 3.2 µM. Besides, the GI50 was 5.94 µM in the assay with SF-268 CNS, 11 µM in the assay with EKVX NSCLC, 9.89 µM in the assay on MDA-MB-231 breast and 1.78 µM in the assay with LOX IMVI melanoma. Also, the TGI was over 20 µM in the assay with OVCAR-5 ovarian; 7.91 µM with UACC-62 melanoma; over 21.1 µM in the assay on HL-60(TB) leukemia; over 25 µM in the assay with OVCAR-8 ovarian; over 25 µM in the assay with SNB-75 CNS; 14.4 µM with HOP-92 NSCLC. In addition, the TGI is over 25 µM in the assay with SF-268 CNS, over 25 µM in the assay with EKVX NSCLC, over 25 µM with MDA-MB-231 breast and 15.3 µM in the assay with LOX IMVI melanoma.
On to `COc1ccc(CN(C)c2ccc(CO)c(Cl)c2)cc1`, for which the GI50 in the assay on OVCAR-5 ovarian was 0.439 µM; in the assay on UACC-62 melanoma, 0.274 µM; in the assay with HL-60(TB) leukemia, 17.7 µM; in the assay on OVCAR-8 ovarian it was 19.6 µM; with SNB-75 CNS it was 23.5 µM; in the assay on HOP-92 NSCLC, 4.7 µM. Further, the GI50 with SF-268 CNS was 33.4 µM; in the assay on EKVX NSCLC, 22 µM; in the assay with MDA-MB-231 breast, 22.7 µM; in the assay with LOX IMVI melanoma it was 27.9 µM. In addition, the TGI in the assay on OVCAR-5 ovarian was 2.9 µM; in the assay with UACC-62 melanoma, 2.24 µM; with HL-60(TB) leukemia, 64.8 µM; in the assay on OVCAR-8 ovarian, over 100 µM; in the assay on SNB-75 CNS it was over 90.7 µM; with HOP-92 NSCLC, 45.3 µM. The TGI is over 100 µM in the assay with SF-268 CNS, over 91.6 µM with EKVX NSCLC, over 88.8 µM in the assay with MDA-MB-231 breast and over 100 µM in the assay on LOX IMVI melanoma.
